The target in assay [1] is T1, 5-HT1A serotonin receptor subtype (Rattus norvegicus, UniProt P19327).
T1 construct: from tissue
T1 sequence (P19327 1-422): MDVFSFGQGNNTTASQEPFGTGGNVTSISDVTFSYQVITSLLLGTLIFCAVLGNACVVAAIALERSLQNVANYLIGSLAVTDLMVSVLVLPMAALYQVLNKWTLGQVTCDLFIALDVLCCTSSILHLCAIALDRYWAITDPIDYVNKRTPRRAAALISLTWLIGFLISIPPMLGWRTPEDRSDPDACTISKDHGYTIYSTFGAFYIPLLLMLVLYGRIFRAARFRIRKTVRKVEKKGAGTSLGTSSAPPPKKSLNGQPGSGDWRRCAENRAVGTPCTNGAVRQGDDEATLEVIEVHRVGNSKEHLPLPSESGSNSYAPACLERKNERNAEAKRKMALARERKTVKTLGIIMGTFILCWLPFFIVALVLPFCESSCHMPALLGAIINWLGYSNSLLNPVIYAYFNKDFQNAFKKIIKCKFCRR
Put plainly: Affinity for 5-HT1A receptor sites, displacement of 3H-8-OH DPAT (Hall et al.). Format: binding. The following applies: for inhibition at 1 µM: 1 μM test compound.
Description: The serotoninergic properties of the compounds of this invention were established by the procedure of Hall et al., J. Neurochem.

Assay [2] deals with T2, limbic D2 (dopamine) receptor (Rattus norvegicus, UniProt P61169).
T2 construct: from tissue; host or cells: limbic brain tissue
T2 sequence (P61169 whole entry): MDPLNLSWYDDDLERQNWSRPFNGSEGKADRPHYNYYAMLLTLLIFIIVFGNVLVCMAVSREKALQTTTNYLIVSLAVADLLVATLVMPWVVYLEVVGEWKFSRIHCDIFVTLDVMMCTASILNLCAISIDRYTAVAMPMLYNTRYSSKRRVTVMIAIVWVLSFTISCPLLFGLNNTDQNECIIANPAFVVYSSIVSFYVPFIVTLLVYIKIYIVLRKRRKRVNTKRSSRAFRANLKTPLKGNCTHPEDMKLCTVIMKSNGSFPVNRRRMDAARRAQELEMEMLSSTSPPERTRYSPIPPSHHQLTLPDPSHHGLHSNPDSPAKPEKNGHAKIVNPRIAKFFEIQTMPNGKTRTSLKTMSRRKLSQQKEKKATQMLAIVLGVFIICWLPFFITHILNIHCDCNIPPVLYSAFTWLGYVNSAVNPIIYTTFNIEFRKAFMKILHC
Description: Affinity for D2 receptor sites, inhibition of 3H-spiroperidol binding to limbic brain tissue. To be noted: 1 μM test compound.

The target of another assay is T3, M1 muscarinic receptor (Rattus norvegicus, UniProt P08482).
T3 construct: from tissue; host or cells: rat hippocampus
T3 sequence (P08482 1-460): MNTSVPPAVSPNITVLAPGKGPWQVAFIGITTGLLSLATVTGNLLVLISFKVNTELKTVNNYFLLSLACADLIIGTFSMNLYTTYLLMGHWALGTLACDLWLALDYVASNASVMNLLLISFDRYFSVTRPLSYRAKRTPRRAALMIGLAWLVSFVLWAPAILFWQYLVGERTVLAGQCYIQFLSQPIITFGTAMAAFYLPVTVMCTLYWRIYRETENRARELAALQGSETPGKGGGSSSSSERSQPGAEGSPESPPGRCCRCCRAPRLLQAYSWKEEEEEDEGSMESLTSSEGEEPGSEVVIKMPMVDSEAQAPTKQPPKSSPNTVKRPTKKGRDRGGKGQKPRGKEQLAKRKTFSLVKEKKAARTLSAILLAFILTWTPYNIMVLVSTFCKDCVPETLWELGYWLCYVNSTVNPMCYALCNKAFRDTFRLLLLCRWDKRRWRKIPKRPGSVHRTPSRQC
Put plainly: M1 muscarinic receptor binding, [3H] pirenzipine, rat hippocampus. How it is done: The M1 muscarinic receptor binding properties of the compounds of this invention were established as follows:
Homogenized rat hippocampus tissue is suspended in 0.32M aqueous sucrose solution and centrifuged (747×g for 10 minutes at 4° C.) and the supernatent liquid is decanted and recentrifuged (18,677×g for 20 minutes at 4° C.). The resulting pellet is resuspended in the original volume of 0.32M aqueous sucrose. The sample is then diluted 1:2 in 10 mM Na2 HPO4 /KH2 PO4 buffer (pH=7.4). A 100 μl sample of the buffered tissue suspension is incubated at 25° C. for 60 minutes in the dark with 10 μl of test compound or vehicle for control and [^3 H] pirenzipine (0.5 nM, 0.04 μCi) q.s. 1 milliliter with the buffer solution. Atropine sulfate (2 μM) is added to half the samples being processed. Binding is terminated by vacuum filtration onto Whatman GF/B filters which are washed three times with the buffer solution (3 ml/wash, 4° C.). […] Specific ]^3 H] PZ binding is defined as total binding minus binding in the presence of 2 μM atropine sulfate.

For the next assay, the target named is T4, M2 muscarinic receptor (Rattus norvegicus, UniProt P10980).
T4 construct: Homogenized rat cerebellum tissue; from tissue; host or cells: rat cerebellum
T4 sequence (P10980 1-466): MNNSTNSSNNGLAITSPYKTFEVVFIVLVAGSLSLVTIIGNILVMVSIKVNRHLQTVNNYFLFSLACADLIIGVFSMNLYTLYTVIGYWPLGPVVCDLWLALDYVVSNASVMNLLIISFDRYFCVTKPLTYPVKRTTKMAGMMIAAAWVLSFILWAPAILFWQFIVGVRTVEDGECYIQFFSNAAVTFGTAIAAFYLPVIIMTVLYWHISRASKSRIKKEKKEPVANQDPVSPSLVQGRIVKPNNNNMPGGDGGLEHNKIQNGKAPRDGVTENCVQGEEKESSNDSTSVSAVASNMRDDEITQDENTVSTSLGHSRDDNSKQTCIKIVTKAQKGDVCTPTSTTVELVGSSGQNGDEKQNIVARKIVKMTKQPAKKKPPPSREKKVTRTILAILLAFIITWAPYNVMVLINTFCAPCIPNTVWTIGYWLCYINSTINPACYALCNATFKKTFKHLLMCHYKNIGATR
Put plainly: M2 receptor binding, [3H] quinuclidinyl benzilate, rat cerebellum. The following applies: [3H] quinuclidinyl benzilate 0.23 nM, 37° C., 60 minutes.

The conditions of assay [3]: background statement, Barone et al., 1986; cited from earlier work.

The text below walks through data of patent US4873331A, “Noradamantyl-carboxylic acid piperazinoalkyl esters” (American Home Products Corporation, priority 1988, dated 1989).

For the compound `COc1ccccc1N1CCN(CCOC(=O)C23CC4CC(CC2C4)C3)CC1` [Example 2, Hexahydro-2,5-methanopentalene-3a[1H]-carboxylic acid 2-[4-(2-methoxyphenyl)-1-piperazinyl]ethyl ester], the inhibition (in general, the drop in the measured response relative to a control, in per cent) at 1 µM in assay [1] came out at 95%; in assay [2], 100%.

On to `O=C(OCCN1CCN(c2ncccn2)CC1)C12CC3CC(CC1C3)C2` [Example 1, Hexahydro-2,5-methanopentalene-3a[1H]-carboxylic acid 2-[4-(2-pyrimidyl)-1-piperazinyl]ethyl ester], for which the values for the inhibition at 1 µM in assay [1] and in assay [2] were 93% and 47%, respectively. In addition, the inhibitory constant (Ki) (commonly a measure of affinity in units of concentration, obtained from inhibition or displacement) in assay [1] (calculated from IC50 values) is 23 nM.

As for `O=C(OCCCN1CCN(c2ncccn2)CC1)C12CC3CC(CC1C3)C2` [Example 3, Hexahydro-2,5-methanopentalene-3a[1H]-carboxylic acid 3-[4-(2-pyrimidyl)-1-piperazinyl]propyl ester], in assay [1] (100 nM test compound), at 0.1 µM the inhibition was 12%. Besides, the “M2/M1 Ratio” value at M1 muscarinic receptor (IC50 M2 / IC50 M1) stood at 81. Further, the IC50 (commonly the concentration that inhibits the measured activity by half) on M1 muscarinic receptor (rat hippocampus, [3H] pirenzipine 0.5 nM, 25° C., 60 minutes) was determined as 850 nM; at M2 muscarinic receptor, 69000 nM.

As for `COc1ccccc1N1CCN(CCCOC(=O)C23CC4CC(CC2C4)C3)CC1` [Example 4, Hexahydro-2,5-methanopentalene-3a[1H]carboxylic acid 3-[4-(2-methoxyphenyl)-1-piperazinyl]propyl ester], the inhibition at 1 µM in assay [1] amounted to 96%; in assay [2] it was 100%.

For the compound `Cc1nc2sccn2c(=O)c1CCN1CCC(=C(c2ccc(F)cc2)c2ccc(F)cc2)CC1` [Ritanserin], the “clinical efficacy as anxiolytic-antidepressant agents” value in assay [3] is listed as “demonstrate clinical efficacy as anxiolytic-antidepressant agents”.
